This is an account of results in US6080780A, “Use of nitroflavonoids for the treatment of anxiety” (University of Strathclyde, priority 1995, dated 2000).

The subject of one series is rats. The series can be described thus: Tail-flick test in rats. The class given is in vivo, rat. As to the method: This test was performed according to Siegfried et al. (1987). Analgesia was assessed with a tail-flick apparatus. Rats were wrapped in a towel and placed on the apparatus; the light source positioned below the tail was focused on a point 2.3 cm rostral to the tip of the tail. Deflection of the tail activated a photocell and automatically terminated the trial. Light intensity was adjusted so as to obtain a baseline tail-flick latency (TFL) of 3-6 s. A cut-off time of 10 s was used to prevent tissue damage. Briefly, the general procedure was as follows: a baseline TFL value was obtained for each animal. Following this, the rats were placed alone in a waiting cage. TFL value was measured 1 h after an i.p. injection of vehicle or DNF.

Series [1] deals with T1, central benzodiazepine receptor (Rattus norvegicus, UniProt P18508+P62813). Kind of series: Autoradiographic [3H]-FNZ displacement on rat brain sections. It counts as binding, rat (Wistar). Details: Wistar rats were decapitated and brains rapidly removed; from tissue; host or cells: Wistar rat brain sagittal sections. The procedure: Wistar rats were decapitated and brains rapidly removed. Sagittal sections (15 μm in thickness) were prepared at -20° C. using a microtome-cryostat. The tissue slices were kept frozen at -70° C. until used. For DNF displacement curves to [^3 H]--FNZ binding (0.65 nM), tissue sections were incubated for 60 min at 4° C. in 25 mM Tris HCl buffer, pH 7.4, in presence of different concentrations of DNF (1-600 nM). For non-specific binding we used 10 μM FNZ. The incubation was terminated by rinsing the sections for two min in cold buffer. Sections were briefly dipped in cold distilled water and dried rapidly under a stream of cold air (Niddam et al., 1987).
Autoradiograms were generated by apposing the slide-mounted tissue section to tritium-sensitive film (Hyperfilm Amersham) in a light-proof X-ray cassette at 4° C. for two weeks.
The optical densities from different brain regions were converted first to radioactive units and then to fmol/mm^2 using the [^3 H] standards on the film with the aid of a computerized image densitometric analysis system (MCID 4.02). The values were normalized and the Ki values were determined using a computerized program (Graph-Pad Prism) Bernabeu et al., 1995; Cammarota et al., 1995).

Series [2] deals with mice. The series can be described thus: Locomotor activity test in mice. The class given is in vivo, male Swiss mice. Particulars: i.p. As to the method: (§1) Adult male Wistar rats weighing 250 g were used for biochemical experiments. Adult male Swiss male weighing 25-30 g were used for pharmacological assays except for inhibitory avoidance and tail flick tests were done in rats. Animals were housed in a controlled environment, with free access to food and water and maintained on a 12 h/12 h day/night cycle.
An Opto-varimex® apparatus was used according to Viola et al. (1994). The apparatus discriminates between total and ambulatory activities. An increase in the number of transitions through the beams reflects augmented locomotor activity. In this and all following tests in mice, animals were i.p. injected with the vehicle, or with DNF 20 min before the beginning of the tests. In each session, control mice were tested in parallel with those animals receiving drug treatment.

In series [3] the test system is mice. The series can be described thus: Elevated plus-maze test in mice (Section 1, incl. Table 1). Particulars: mice, i.p. The class given is in vivo, male Swiss mice. As to the method:
Performance of mice on the elevated plus-maze test was used to measure anxiolytic actions in rodents, following i.p. administration of vehicle or compound (II).
The animals used in the pharmacological test were male Swiss mice from breeding stock, weighing 28-35 g. They were placed n groups of ten with free access to water and food, and maintained on 12 h/12 h day/night cycle. In all the tests the mice were i.p. injected with VEH or a solution of the drug, 15 minutes before the assay.
The elevated plus-maze set-up consisted of a maze of two open arms, 25×5 cm, crossed by two closed arms of the same dimensions, with free access to all arms from the crossing point. The closed arms had walls 35 cm high all around. The maze was suspended 50 cm from the room floor. Mice were placed on the central part of the cross facing an open arm. The number of entries and the time spent going into open and closed arms were counted during 5 minutes. […] The total exploratory activity (number of entries in both arms) was also determined.

The target in series [4] is T1, central benzodiazepine receptor. The series can be described thus: [3H]-FNZ binding to crude synaptosomal membranes from rat CNS regions. Details: washed crude synaptosomal membranes from rat cerebral cortex; from tissue; host or cells: Wistar rat cerebral cortex, cerebellum, hippocampus, striatum, spinal cord (crude synaptosomal membranes); species or system rat (Wistar). The settings on record: Ki, [3H]-FNZ binding, rat cerebellum. The procedure: as §1
Displacement curves were performed using [^3 ]-FNZ or [^3 H]-zolpidem ([^3 H]-ZOLP) as radioligands in washed crude synaptosomal membranes from rat cerebral cortex, cerebellum, hippocampus, striatum or spinal cord. Membrane preparations were carried out according to Medina et al. (1990). Briefly, brains were rapidly dissected out on ice and the different structures were homogenized in 10 volumes of 0.32 M sucrose and centrifuged at 900×g for 10 min. […]
For [^3 H]-FNZ (84 Ci/mmol, NEN) displacement curves, different concentrations of DNF (0.3 nM to 1 μM) were added to 0.3 mg membrane protein suspended in 1 ml of 25 mM Tris HCl buffer in presence of 0.6 nM of the radioligand. […] Nonspecific binding (<5%) was determined in parallel incubations with 10 μM FNZ (Hoffmann-La Roche). […] The assays were determined by filtration under vacuum through Whatman GF/A glass fiber filters, and two washes with 3 ml each of incubation medium. Filters were dried and counted after the addition of 5 ml 2,5-diphenyl-oxazole (PPO)-xylene as scintillation fluid.

The next series deals with GABAλ receptors. The series can be described thus: [3H]-muscimol binding. The settings on record: 20 μM; data not shown. As to the method:
Additional binding studies were performed as described elsewhere: [^3 ]-prazosin binding for α1 adrenergic receptors (Medina et al., 1984), [^3 H]-dihidroalprenolol binding for β adrenergic receptors (Medina et al. 1984), [^3 H]-quinuclinidyl benzylate binding for muscarinic cholinergic receptors (Jerusalinksy et al., 1983), [^3 H]-muscimol binding for GABAλ receptors (Medina et al., 1983) and [^3 H]-8-Hydroxydipropylaminotetralin ([^3 H]--OH--DPAT) binding for serotonin (5-HTlλ) receptors (Nenonene et al., 1984).

Several values for one entry are separate records, joined by “and”; a condition that tells them apart may be missing. Identical values can stand only once.

T1 sequence (P62813 28-455): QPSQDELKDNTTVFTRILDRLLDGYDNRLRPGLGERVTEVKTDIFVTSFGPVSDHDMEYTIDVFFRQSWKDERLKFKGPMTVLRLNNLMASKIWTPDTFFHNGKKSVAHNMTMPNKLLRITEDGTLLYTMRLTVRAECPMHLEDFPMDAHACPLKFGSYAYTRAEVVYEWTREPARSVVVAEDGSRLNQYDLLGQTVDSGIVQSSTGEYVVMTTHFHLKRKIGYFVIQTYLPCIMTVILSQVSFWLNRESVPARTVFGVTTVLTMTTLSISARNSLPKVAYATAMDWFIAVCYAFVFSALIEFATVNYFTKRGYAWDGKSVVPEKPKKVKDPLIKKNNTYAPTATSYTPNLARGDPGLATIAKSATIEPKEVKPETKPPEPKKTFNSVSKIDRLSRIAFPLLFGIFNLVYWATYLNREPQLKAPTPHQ
T1 sequence (P18508 39-466): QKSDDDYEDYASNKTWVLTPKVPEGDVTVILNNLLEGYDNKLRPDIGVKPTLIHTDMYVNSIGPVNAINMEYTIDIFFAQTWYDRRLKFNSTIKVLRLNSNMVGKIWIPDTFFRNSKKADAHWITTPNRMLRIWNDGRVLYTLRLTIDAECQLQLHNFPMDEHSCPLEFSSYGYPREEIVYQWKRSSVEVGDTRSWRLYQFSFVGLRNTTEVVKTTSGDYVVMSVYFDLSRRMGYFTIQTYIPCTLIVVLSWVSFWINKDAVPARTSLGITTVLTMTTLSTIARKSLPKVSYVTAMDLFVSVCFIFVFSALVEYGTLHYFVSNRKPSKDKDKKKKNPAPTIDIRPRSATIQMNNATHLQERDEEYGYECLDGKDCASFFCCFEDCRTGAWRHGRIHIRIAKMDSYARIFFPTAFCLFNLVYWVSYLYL
T1 sequence (P63138 26-474 partner): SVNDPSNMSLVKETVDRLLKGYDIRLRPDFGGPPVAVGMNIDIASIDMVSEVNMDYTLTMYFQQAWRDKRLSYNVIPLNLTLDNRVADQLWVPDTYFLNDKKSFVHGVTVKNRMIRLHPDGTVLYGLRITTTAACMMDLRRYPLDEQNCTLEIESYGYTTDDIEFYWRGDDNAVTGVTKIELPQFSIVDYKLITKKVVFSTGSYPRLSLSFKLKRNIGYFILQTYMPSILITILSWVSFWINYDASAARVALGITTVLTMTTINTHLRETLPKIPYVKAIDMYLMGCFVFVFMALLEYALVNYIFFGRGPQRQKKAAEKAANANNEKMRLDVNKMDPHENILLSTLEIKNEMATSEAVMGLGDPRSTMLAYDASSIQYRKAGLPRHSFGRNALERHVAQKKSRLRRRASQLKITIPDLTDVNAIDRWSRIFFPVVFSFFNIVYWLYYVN

By Ki is commonly meant a measure of affinity in units of concentration, obtained from inhibition or displacement. A high value points to a looser hold on the target. In the case of `O=c1cc(-c2cccc([N+](=O)[O-])c2)oc2ccc([N+](=O)[O-])cc12` [Compound (II), 6,3'-dinitroflavone], the “tail-flick latency (TFL)” value with rats (rats, 100 μg/kg, 1 h after i.p., median (interquartile), n=11, vehicle 3.2 s) is 3.5 s. Also, in the series on rats (rats, i.p., 100 μg/kg), the “TFL (in words)” value was “did not alter TFL”. The analgesic effects entry in the series with rats (up to 10 mg/kg as worded) was “did not evidence anticonvulsant, myorelaxant, amnesic or analgesic effects”. Further, the Ki in series [1] is 17.2 ± 2.3 nM; in series [4] it was 17 nM and 17.2 nM. Further, the spontaneous ambulatory locomotion result is on record as “slight increase” in the series with mice [2] (0.3 mg/kg, p<0.05) and “no effect on spontaneous ambulatory locomotion” in the series with mice [2] (up to 3 mg/kg). Besides, in the series on mice [2] (10 mg/kg, p<0.01), the “reduction in the locomotion” value is 55%. Further, the “percentage of the time spent in the open arms” value in the series on mice [3] (3 and 30 μg/kg) was “enhanced the percentage of the time spent in the open arms”. Moreover, in the series on mice [3] (doses 0 to 30 μg/kg), the total arm entries result is on record as “without affecting the total arm entries”. In addition, in the series with mice [3] (doses 0 to 30 μg/kg, 15 min before test), the “percentage of entries in the open arms” value was “increased the percentage of entries in the open arms”. In addition, the “displacement of [3H]-muscimol binding” value in the series with GABAλ receptors is reported as “did not displace”.
